The values that follow come from patent US9992994B2, “Agricultural and detergent compositions containing a tertiary amide as adjuvant or as surfactant” (Taminco BVBA, priority 2011, dated 2018).

The conditions of data set [1]: 20° C., cited from earlier work.
Data set [2] in a line: compatibility of diquats with anionic surfactant in water. To be noted: 1 wt % total surfactant in water, ambient temperature; for Compatibility observation, 100% of Diquat: 100% diquat; for Compatibility observation, 10% of Diquat / Compatibility observation, 20% of Diquat / Compatibility observation, 30% of Diquat / Compatibility observation, 40% of Diquat / Compatibility observation, 50% of Diquat / Compatibility observation, 60% of Diquat / Compatibility observation, 70% of Diquat / Compatibility observation, 80% of Diquat / Compatibility observation, 90% of Diquat: mixture with Sodium Laureth Sulfate; for Compatibility observation, 10% of Diquat: 10% diquat; for Compatibility observation, 20% of Diquat: 20% diquat; for Compatibility observation, 30% of Diquat: 30% diquat; for Compatibility observation, 40% of Diquat: 40% diquat; for Compatibility observation, 50% of Diquat: 50% diquat; for Compatibility observation, 60% of Diquat: 60% diquat; for Compatibility observation, 70% of Diquat: 70% diquat; for Compatibility observation, 80% of Diquat: 80% diquat; for Compatibility observation, 90% of Diquat: 90% diquat. It counts as physicochemical. Set-up: key: Cl. = Clear; Blu. = Bluish; Visc. = Viscous; Prec. = Precipitate; Turb. = Turbid. How it is done:
To delimit the applicability of the Diquats the compatibility in different ratios with LES was tested in the temperature range between 0° C. and 90° C. […] With a hydrocarbon tail of up to 10 carbon atoms no precipitation was observed and with increasing chain length only a very narrow region of mixing ratios led to an insoluble deposit.

Data set [3] can be described thus: solubility temperatures of 1 wt % solutions. It counts as physicochemical.
The test system of data set [4] is Black nightshade (SOLNI). As to the kind of experiment: adjuvant for glyphosate test on black nightshade. It counts as in vivo. To be noted: where named, 0.25% w/v, 14 DAT; for Fresh Weight SOLNI: IPA-glyphosate 0.6 mM (20.3 g ae/ha at 200 L/ha); for Relative weight SOLNI (%): untreated plant = 100%, IPA-glyphosate 0.6 mM. The method, then: (§1) Wheat plants were used as a model for difficult to wet grasses and black nightshade was used as a model for a plant with an easy to wet but difficult to permeate leaf surface.
(§2) After emergence, the wheat seedlings were thinned to six plants per pot for the efficacy experiments. Black nightshade seedlings were thinned to one plant per pot. Black nightshade and wheat were treated at the four- and the three-leaf stage, respectively. The fresh weights of the plants were measured 14 days after treatment (14 DAT; black nightshade) or 21 days after treatment (21 DAT; wheat).
(§3) Demineralized water was used as the carrier. […] Based on previous work, these rates were 20.3 g ae/ha (equivalent to 0.6 mM) on black nightshade and 77.8 g ae/ha (equivalent to 2.3 mM at 200 L/ha) on wheat (ae=acid equivalent).
(§4) The fresh weight of the untreated plant was taken as a reference (100%). […] An industrial standard was also included in the test series.

The subject of data set [5] is winter wheat (cv. Ilias). As to the kind of experiment: adjuvant for glyphosate test on wheat. It counts as in vivo. Conditions: where named, 0.25% w/v, 21 DAT; for Fresh Weight WHEAT: IPA-glyphosate 2.3 mM (77.8 g ae/ha at 200 L/ha); for Relative weight WHEAT (%): untreated plant = 100%, IPA-glyphosate 2.3 mM. The method, then:
as §1, §2, §3, §4

Where two headings read alike, the source gives them in different places.

For `CCNc1nc(Cl)nc(NC(C)C)n1` [Atrazine], in data set [1] (no pH given), the “log Kow” value is 2.6.
As to `CC(C)N1C(=O)c2ccccc2NS1(=O)=O` [Bentazone], the “log Kow” value in data set [1] (at pH 7) is given as −0.5.
For `CCCCCCCC(=O)N(CCC[N+](C)(C)Cc1ccccc1)CCC[N+](C)(C)Cc1ccccc1.[Br-].[Br-]` [C8BnBr], in data set [2], the “Compatibility observation, 100% of Diquat” value is recorded as “Cl”; the “Compatibility observation, 10% of Diquat” value was “Cl”; the “Compatibility observation, 20% of Diquat” value is “Cl”; the “Compatibility observation, 30% of Diquat” value is given as “Cl”. In data set [2], the “Compatibility observation, 40% of Diquat” value is reported as “Prec”; the “Compatibility observation, 50% of Diquat” value is “Prec”; the “Compatibility observation, 60% of Diquat” value is listed as “Prec”; the “Compatibility observation, 70% of Diquat” value is on record as “Prec”. In data set [2], the “Compatibility observation, 80% of Diquat” value is “Prec” and the “Compatibility observation, 90% of Diquat” value is recorded as “Prec”.
Take `CCCCCCCC(=O)N(CCC[N+](C)(C)C)CCC[N+](C)(C)C.[Cl-].[Cl-]` [C8MeCl]: in data set [2], the “Compatibility observation, 100% of Diquat” value was “Cl”; the “Compatibility observation, 10% of Diquat” value was “Cl”; the “Compatibility observation, 20% of Diquat” value is recorded as “Cl”; the “Compatibility observation, 30% of Diquat” value is “Cl”. Further, in data set [2], the “Compatibility observation, 40% of Diquat” value is recorded as “Cl”; the “Compatibility observation, 50% of Diquat” value is on record as “Cl”; the “Compatibility observation, 60% of Diquat” value was “Cl”; the “Compatibility observation, 70% of Diquat” value is “Cl”. In data set [2], the “Compatibility observation, 80% of Diquat” value is reported as “Cl” and the “Compatibility observation, 90% of Diquat” value is on record as “Cl”.
With `CCCCCCCC[N+](C)(C)CCCN(CCC[N+](C)(C)CCCCCCCC)C(=O)CCCCCCC.[Br-].[Br-]` [C8OcBr], in data set [2], the “Compatibility observation, 100% of Diquat” value is on record as “Cl”; the “Compatibility observation, 10% of Diquat” value was “Cl”; the “Compatibility observation, 20% of Diquat” value is “Cl”; the “Compatibility observation, 30% of Diquat” value is “Blu”. Further, in data set [2], the “Compatibility observation, 40% of Diquat” value was “Blu”; the “Compatibility observation, 50% of Diquat” value is listed as “Turb”; the “Compatibility observation, 60% of Diquat” value was “Turb”; the “Compatibility observation, 70% of Diquat” value is “Turb”. Moreover, in data set [2], the “Compatibility observation, 80% of Diquat” value is “Cl” and the “Compatibility observation, 90% of Diquat” value is on record as “Cl”.
In the case of `CCCCCCCCCC(=O)N(CCC[N+](C)(C)C)CCC[N+](C)(C)C.[Cl-].[Cl-]` [C10MeCl], in data set [2], the “Compatibility observation, 100% of Diquat” value is on record as “Cl”; the “Compatibility observation, 10% of Diquat” value is on record as “Cl”; the “Compatibility observation, 20% of Diquat” value is “Cl”; the “Compatibility observation, 30% of Diquat” value is given as “Cl”. Moreover, in data set [2], the “Compatibility observation, 40% of Diquat” value is reported as “Cl”; the “Compatibility observation, 50% of Diquat” value is given as “Turb”; the “Compatibility observation, 60% of Diquat” value is reported as “Cl”; the “Compatibility observation, 70% of Diquat” value is recorded as “Cl”. For the same compound, in data set [2], the “Compatibility observation, 80% of Diquat” value is reported as “Cl” and the “Compatibility observation, 90% of Diquat” value is “Cl”.
Consider `CCCCCCCCCCCC(=O)N(CCC[N+](C)(C)C)CCC[N+](C)(C)C.[Cl-].[Cl-]` [C12MeCl], for which, in data set [2], the “Compatibility observation, 100% of Diquat” value is “Cl”; the “Compatibility observation, 10% of Diquat” value is recorded as “Cl”; the “Compatibility observation, 20% of Diquat” value was “Cl”; the “Compatibility observation, 30% of Diquat” value is given as “Cl”. Besides, in data set [2], the “Compatibility observation, 40% of Diquat” value is listed as “Blu”; the “Compatibility observation, 50% of Diquat” value is listed as “Cl”; the “Compatibility observation, 60% of Diquat” value is recorded as “Cl”; the “Compatibility observation, 70% of Diquat” value was “Cl”. Besides, in data set [2], the “Compatibility observation, 80% of Diquat” value is “Cl” and the “Compatibility observation, 90% of Diquat” value is listed as “Cl”.
Take `CCCCCCCCCCCCCC(=O)N(CCC[N+](C)(C)C)CCC[N+](C)(C)C.[Cl-].[Cl-]` [C14MeCl]: in data set [2], the “Compatibility observation, 100% of Diquat” value was “Cl”; the “Compatibility observation, 10% of Diquat” value is “Cl”; the “Compatibility observation, 20% of Diquat” value is given as “Cl”; the “Compatibility observation, 30% of Diquat” value is reported as “Cl”. For the same compound, in data set [2], the “Compatibility observation, 40% of Diquat” value was “Prec”; the “Compatibility observation, 50% of Diquat” value was “Cl”; the “Compatibility observation, 60% of Diquat” value is on record as “Cl”; the “Compatibility observation, 70% of Diquat” value is recorded as “Cl”. In data set [2], the “Compatibility observation, 80% of Diquat” value was “Cl” and the “Compatibility observation, 90% of Diquat” value is listed as “Cl”.
Consider `CCCCCCCCCCCCCCCC(=O)N(CCC[N+](C)(C)C)CCC[N+](C)(C)C.[Cl-].[Cl-]` [C16MeCl], for which, in data set [2], the “Compatibility observation, 100% of Diquat” value is recorded as “Cl”; the “Compatibility observation, 10% of Diquat” value is “Cl”; the “Compatibility observation, 20% of Diquat” value is recorded as “Cl”; the “Compatibility observation, 30% of Diquat” value is recorded as “Visc”. For the same compound, in data set [2], the “Compatibility observation, 40% of Diquat” value was “Prec”; the “Compatibility observation, 50% of Diquat” value is on record as “Cl”; the “Compatibility observation, 60% of Diquat” value is on record as “Cl”; the “Compatibility observation, 70% of Diquat” value is “Cl”. Moreover, in data set [2], the “Compatibility observation, 80% of Diquat” value is “Cl” and the “Compatibility observation, 90% of Diquat” value is listed as “Cl”.
For the compound `CCCCCCCCCCCCCCCCCC(=O)N(CCC[N+](C)(C)C)CCC[N+](C)(C)C.[Cl-].[Cl-]` [C18MeCl], in data set [2], the “Compatibility observation, 100% of Diquat” value is “Cl”; the “Compatibility observation, 10% of Diquat” value is “Cl”; the “Compatibility observation, 20% of Diquat” value is given as “Cl”; the “Compatibility observation, 30% of Diquat” value is listed as “Cl”. In addition, in data set [2], the “Compatibility observation, 40% of Diquat” value is “Turb”; the “Compatibility observation, 50% of Diquat” value is “Visc”; the “Compatibility observation, 60% of Diquat” value is on record as “Cl”; the “Compatibility observation, 70% of Diquat” value is on record as “Cl”. In data set [2], the “Compatibility observation, 80% of Diquat” value is recorded as “Cl” and the “Compatibility observation, 90% of Diquat” value is on record as “Cl”.
`CCCCCCCCCCCCCCCC[N+](C)(C)C.[Br-]` [CTAB, Cetrimonium bromide]: in data set [3], the “Solubility temperatures [° C.] 1 wt %” value came to 25 °C.
The same measure, in the same setting: in the case of `CCCCCCCCCCCC[N+](C)(C)C.[Br-]` [DTAB, Dodecyl Trimethyl Ammonium Bromide] it was less than 0 °C.
In the case of `CC(C)N.O=C(O)CNCP(=O)(O)O` [IPA-glyphosate, reference compound], in data set [4], the “Fresh Weight SOLNI” value is 6.4 g and the “Relative weight SOLNI (%)” value is recorded as 55.2%. In addition, in data set [5], the “Fresh Weight WHEAT” value is given as 12.6 g and the “Relative weight WHEAT (%)” value was 71.7%.
Consider `CCCCCCCCCCCC(=O)[O-].[Na+]` [NaC12, Sodium Laurate], for which the “Solubility temperatures [° C.] 1 wt %” value in data set [3] was found to be 25 °C.
Consider `COc1cc(OC)nc(NC(=O)NS(=O)(=O)c2ncccc2C(=O)N(C)C)n1` [Nicosulfuron], for which the “log Kow” value in data set [1] (at pH 7) is 0.
In the case of `CCCCCCCCCCCC(=O)N(CCC[N+](C)(C)C)CCC[N+](C)(C)C.[Cl-].[Cl-]` [R2, R3, R4, R5, R6 = —CH3 R1 = —C11H23], in data set [4], the “Fresh Weight SOLNI” value was found to be 5.8 g and the “Relative weight SOLNI (%)” value was found to be 50.0%. Moreover, in data set [5], the “Fresh Weight WHEAT” value came to 14.8 g and the “Relative weight WHEAT (%)” value turned out to be 83.8%.
As for `CCCCCCCCCCCCCCCCCC(=O)N(CCC[N+](C)(C)C)CCC[N+](C)(C)C.[Cl-].[Cl-]` [R2, R3, R4, R5, R6 = —CH3 R1 = —C17H35], in data set [4], the “Fresh Weight SOLNI” value is given as 2.8 g and the “Relative weight SOLNI (%)” value is listed as 24.0%. In data set [5], the “Fresh Weight WHEAT” value came out at 14.7 g and the “Relative weight WHEAT (%)” value worked out at 83.5%.
